# Laboratory results: US5175266A, “Nucleosides and oligonucleosides with a phosphate-free internucleoside backbone and process for preparing the same” (Triplex Pharmaceutical Corporation, priority 1991, dated 1992)
# Test: Chemical stability of the amide linkage (hydrolysis in NH4OH)
# Type: physicochemical
# Settings: 30% NH4OH, 55° C., 24 h, assessed by TLC
# Protocol: To assess the chemical stability of the amide linkages in the synthesized compounds, the monomer (6) (T'gly) was subjected to hydrolysis in 30% NH4 OH at 55° C. for 24 h. […] Thus, the amide bond appears to be stable with respect to general base catalyzed hydrolysis. From a practical perspective, this stability to 30% NH4 OH at 55° C. confirms that the amide linkage can withstand the hydrolysis required to remove base protecting groups which are necessary for polymerization of A,C and G homologues.
smiles,measurement,value
"Cc1cn([C@H]2C[C@H](N)[C@@H](C(=O)NCC(=O)O)O2)c(=O)[nH]c1=O [Compound 6, 1-(3-amino-2,3-dideoxy-β-D-erythro-pentofuranosyl-5-glycine uronate)thymine]",hydrolysis of the amide linkage,no hydrolysis of the amide linkage was detected
